From US10301291B2, “Imidazole derivative having JNK inhibitory activity and use thereof” (SAMJIN PHARMACEUTICAL CO., LTD., priority 2016, dated 2019)

Columns and labels:
Experiment in all cases: Kinase profiling service (Reaction Biology Corp.)
Format in all cases: biochemical
Conditions in all cases: compound 10 μM
LCK = LCK (Homo sapiens (Human), UniProt P06239)
Description: (§1) An inhibitory activity of the compound (10 μM) of Example 34 against various protein kinases was measured by means of a kinase profiling service (ICso profiler express) of Reaction Biology Corp., wherein ICso, a concentration at which JNK enzyme activity was inhibited 50%, was also measured by sequentially reducing a concentration of the compound.

IGF1R = IGF1R (Homo sapiens (Human), UniProt P08069)
Description: as §1

FYN = FYN (Homo sapiens (Human), UniProt P06241)
Description: as §1

Aurora A = Aurora A (Homo sapiens (Human), UniProt O14965)
Description: as §1

CDK2/cyclin E = CDK2/cyclin E (Homo sapiens (Human), UniProt P24941)
Description: as §1

EGFR = EGFR (Homo sapiens (Human), UniProt P00533)
Description: as §1

ROS/ROS1 = ROS/ROS1 (Homo sapiens (Human), UniProt P08922)
Description: as §1

FGFR3 = FGFR3 (Homo sapiens (Human), UniProt P22607)
Description: as §1

CDK1/cyclin B = CDK1/cyclin B (Homo sapiens (Human), UniProt P06493)
Description: as §1

JNK2 = JNK2 (Homo sapiens (Human), UniProt P45984)
Description: as §1

LRRK2 = LRRK2 (Homo sapiens (Human), UniProt Q5S007)
Description: as §1

SYK = SYK (Homo sapiens (Human), UniProt P43405)
Description: as §1

JAK3 = JAK3 (Homo sapiens (Human), UniProt P52333)
Description: as §1

ALK = ALK (Homo sapiens (Human), UniProt Q9UM73)
Description: as §1

c-Src = c-Src (Homo sapiens (Human), UniProt P12931)
Description: as §1

c-Kit = c-Kit (Homo sapiens (Human), UniProt P10721)
Description: as §1

PLK1 = PLK1 (Homo sapiens (Human), UniProt P53350)
Description: as §1

FLT3 = FLT3 (Homo sapiens (Human), UniProt P36888)
Description: as §1

MEK1 = MEK1 (Homo sapiens (Human), UniProt Q02750)
Description: as §1

FMS = FMS (Homo sapiens (Human), UniProt P07333)
Description: as §1

ABL1 = ABL1 (Homo sapiens (Human), UniProt P00519)
Description: as §1

PKA = PKA (Homo sapiens (Human), UniProt P17612)
Description: as §1

LYN = LYN (Homo sapiens (Human), UniProt P07948)
Description: as §1

ERK2/MAPK1 = ERK2/MAPK1 (Homo sapiens (Human), UniProt P28482)
Description: as §1

GSK3b = GSK3b (Homo sapiens (Human), UniProt P49841)
Description: as §1

FAK/PTK2 = FAK/PTK2 (Homo sapiens (Human), UniProt Q05397)
Description: as §1

MLK1/MAP3K9 = MLK1/MAP3K9 (Homo sapiens (Human), UniProt P80192)
Description: as §1

KDR/VEGFR2 = KDR/VEGFR2 (Homo sapiens (Human), UniProt P35968)
Description: as §1

c-MET = c-MET (Homo sapiens (Human), UniProt P08581)
Description: as §1

JNK3 = JNK3 (Homo sapiens (Human), UniProt P53779)
Description: as §1

AKT1 = AKT1 (Homo sapiens (Human), UniProt P31749)
Description: as §1

ERK1 = ERK1 (Homo sapiens (Human), UniProt P27361)
Description: as §1

mTOR/FRAP1 = mTOR/FRAP1 (Homo sapiens (Human), UniProt P42345)
Description: as §1

[1] = Data 1 and Data 2, read-out: % Enzyme Activity (relative to DMSO controls)

Chain of LYN (P07948 whole entry): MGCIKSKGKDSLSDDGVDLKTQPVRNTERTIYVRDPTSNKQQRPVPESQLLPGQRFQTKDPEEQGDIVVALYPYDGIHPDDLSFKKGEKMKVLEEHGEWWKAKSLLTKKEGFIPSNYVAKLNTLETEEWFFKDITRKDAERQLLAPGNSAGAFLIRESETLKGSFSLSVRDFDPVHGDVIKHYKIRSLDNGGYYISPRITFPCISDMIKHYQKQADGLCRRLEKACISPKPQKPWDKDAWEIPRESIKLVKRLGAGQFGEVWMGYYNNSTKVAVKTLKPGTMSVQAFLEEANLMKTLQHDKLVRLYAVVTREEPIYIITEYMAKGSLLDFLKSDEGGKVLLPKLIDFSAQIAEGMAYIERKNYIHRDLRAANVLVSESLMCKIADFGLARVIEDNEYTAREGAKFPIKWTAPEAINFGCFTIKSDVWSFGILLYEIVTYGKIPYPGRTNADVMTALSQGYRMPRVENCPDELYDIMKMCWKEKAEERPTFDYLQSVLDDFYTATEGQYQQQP
Chain of JNK3 (P53779 whole entry): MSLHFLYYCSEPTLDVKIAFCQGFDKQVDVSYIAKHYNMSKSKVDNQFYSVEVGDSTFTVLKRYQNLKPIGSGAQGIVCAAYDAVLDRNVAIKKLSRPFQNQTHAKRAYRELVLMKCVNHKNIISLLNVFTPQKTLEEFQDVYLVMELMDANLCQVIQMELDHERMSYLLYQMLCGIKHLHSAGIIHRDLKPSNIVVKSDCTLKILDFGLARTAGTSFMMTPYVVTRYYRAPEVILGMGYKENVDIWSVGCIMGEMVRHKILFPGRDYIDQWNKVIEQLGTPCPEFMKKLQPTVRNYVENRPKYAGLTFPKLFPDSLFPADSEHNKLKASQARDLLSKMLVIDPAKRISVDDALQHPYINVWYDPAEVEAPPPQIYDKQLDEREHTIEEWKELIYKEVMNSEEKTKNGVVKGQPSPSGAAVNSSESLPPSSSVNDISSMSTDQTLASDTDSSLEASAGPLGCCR
Chain of ROS/ROS1 (P08922 28-2347): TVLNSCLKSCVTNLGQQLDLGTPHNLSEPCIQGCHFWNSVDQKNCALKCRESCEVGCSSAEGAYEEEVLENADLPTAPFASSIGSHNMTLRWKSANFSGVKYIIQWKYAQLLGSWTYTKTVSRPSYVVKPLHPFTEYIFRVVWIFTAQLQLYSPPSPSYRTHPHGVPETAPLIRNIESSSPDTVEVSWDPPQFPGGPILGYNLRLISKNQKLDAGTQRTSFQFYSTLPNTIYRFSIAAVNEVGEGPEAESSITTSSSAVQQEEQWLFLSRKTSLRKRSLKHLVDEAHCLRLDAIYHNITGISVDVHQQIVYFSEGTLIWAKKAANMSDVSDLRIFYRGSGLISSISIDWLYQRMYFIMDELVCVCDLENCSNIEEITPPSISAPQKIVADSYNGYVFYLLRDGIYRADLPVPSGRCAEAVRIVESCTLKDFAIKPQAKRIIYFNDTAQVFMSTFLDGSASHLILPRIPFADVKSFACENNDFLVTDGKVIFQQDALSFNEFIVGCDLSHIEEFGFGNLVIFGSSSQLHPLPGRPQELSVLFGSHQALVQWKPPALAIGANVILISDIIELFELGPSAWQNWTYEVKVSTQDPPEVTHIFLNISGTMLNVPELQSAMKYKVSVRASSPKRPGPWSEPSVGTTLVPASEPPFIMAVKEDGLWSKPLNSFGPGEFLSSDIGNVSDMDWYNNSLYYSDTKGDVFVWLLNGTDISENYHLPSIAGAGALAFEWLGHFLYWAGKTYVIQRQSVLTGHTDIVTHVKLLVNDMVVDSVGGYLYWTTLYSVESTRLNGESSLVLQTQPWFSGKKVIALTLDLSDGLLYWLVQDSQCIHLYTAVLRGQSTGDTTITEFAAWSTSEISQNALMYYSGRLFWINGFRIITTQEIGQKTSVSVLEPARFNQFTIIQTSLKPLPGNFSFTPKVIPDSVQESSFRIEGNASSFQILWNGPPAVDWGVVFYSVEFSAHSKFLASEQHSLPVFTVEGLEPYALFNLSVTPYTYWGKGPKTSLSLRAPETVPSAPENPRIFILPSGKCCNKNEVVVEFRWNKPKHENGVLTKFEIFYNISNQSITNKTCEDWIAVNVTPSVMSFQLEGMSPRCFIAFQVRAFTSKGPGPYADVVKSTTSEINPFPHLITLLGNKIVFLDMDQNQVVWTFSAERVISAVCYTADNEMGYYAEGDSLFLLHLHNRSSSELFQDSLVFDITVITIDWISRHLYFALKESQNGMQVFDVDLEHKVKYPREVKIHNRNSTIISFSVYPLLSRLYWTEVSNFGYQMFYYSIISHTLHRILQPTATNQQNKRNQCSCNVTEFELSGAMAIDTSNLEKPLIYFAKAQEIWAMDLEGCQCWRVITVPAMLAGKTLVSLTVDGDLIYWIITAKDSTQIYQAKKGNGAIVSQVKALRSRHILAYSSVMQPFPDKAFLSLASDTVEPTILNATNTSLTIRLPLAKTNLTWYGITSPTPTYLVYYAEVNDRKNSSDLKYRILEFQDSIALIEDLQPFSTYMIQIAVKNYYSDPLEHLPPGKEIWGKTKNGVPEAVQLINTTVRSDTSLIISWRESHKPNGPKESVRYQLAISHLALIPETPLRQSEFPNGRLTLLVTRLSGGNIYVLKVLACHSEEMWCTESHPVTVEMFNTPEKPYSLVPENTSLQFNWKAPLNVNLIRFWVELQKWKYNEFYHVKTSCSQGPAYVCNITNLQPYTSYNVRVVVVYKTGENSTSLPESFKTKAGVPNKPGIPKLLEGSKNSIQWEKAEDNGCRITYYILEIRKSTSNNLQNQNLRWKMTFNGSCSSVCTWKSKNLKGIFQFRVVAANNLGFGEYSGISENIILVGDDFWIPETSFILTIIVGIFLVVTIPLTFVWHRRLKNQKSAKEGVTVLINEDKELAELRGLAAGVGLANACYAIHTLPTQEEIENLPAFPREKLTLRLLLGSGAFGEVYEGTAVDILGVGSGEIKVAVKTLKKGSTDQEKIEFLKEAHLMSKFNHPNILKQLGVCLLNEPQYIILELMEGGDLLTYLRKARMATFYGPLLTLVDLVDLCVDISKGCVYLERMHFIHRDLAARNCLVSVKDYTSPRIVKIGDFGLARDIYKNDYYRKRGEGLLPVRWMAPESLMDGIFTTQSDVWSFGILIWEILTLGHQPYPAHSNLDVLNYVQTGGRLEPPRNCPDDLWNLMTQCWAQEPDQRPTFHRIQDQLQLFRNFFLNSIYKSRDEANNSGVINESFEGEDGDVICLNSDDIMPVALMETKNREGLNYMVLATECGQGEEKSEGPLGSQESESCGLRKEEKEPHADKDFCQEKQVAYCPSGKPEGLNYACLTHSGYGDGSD
Chain of JAK3 (P52333 whole entry): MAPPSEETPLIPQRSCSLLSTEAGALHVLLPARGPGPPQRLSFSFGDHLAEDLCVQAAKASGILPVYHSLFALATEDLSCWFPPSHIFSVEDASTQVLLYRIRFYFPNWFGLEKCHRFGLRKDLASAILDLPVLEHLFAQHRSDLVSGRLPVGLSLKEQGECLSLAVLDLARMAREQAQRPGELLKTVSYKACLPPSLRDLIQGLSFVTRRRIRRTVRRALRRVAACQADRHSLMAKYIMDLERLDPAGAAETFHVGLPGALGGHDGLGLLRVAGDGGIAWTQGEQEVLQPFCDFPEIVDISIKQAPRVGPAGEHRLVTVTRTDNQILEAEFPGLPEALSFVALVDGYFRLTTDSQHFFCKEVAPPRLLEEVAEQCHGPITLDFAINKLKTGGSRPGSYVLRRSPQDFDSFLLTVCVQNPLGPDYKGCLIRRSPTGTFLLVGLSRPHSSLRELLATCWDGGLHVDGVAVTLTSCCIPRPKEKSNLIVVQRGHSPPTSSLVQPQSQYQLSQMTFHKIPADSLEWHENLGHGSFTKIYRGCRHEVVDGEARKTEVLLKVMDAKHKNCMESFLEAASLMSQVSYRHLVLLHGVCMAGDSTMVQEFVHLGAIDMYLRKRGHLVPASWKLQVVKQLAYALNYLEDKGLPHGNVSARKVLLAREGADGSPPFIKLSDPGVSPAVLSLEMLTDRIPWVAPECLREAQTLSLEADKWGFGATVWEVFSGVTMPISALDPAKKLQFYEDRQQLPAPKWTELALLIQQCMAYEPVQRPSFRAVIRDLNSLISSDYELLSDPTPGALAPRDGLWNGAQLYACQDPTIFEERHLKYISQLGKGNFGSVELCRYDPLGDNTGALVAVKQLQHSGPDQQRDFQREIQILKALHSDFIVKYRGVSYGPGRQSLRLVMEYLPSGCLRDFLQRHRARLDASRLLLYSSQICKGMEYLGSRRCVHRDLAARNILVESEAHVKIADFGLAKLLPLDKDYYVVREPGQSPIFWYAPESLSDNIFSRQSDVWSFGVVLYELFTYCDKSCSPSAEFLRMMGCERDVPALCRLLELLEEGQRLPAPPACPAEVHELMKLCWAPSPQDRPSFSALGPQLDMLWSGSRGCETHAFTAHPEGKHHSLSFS
Chain of c-Src (P12931 whole entry, looked up): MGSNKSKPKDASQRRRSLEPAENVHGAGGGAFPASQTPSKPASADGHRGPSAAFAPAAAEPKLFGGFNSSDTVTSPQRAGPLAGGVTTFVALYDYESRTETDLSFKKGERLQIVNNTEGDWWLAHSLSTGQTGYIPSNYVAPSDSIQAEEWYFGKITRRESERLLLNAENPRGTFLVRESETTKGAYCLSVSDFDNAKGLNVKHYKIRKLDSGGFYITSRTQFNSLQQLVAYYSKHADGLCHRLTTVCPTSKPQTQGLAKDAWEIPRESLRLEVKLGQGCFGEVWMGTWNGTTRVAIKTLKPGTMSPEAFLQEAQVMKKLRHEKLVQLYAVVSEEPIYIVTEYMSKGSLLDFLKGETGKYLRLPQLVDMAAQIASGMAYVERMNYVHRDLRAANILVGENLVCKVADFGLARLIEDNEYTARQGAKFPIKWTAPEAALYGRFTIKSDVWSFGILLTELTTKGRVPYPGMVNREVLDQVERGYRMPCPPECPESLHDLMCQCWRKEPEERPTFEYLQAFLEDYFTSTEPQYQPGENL

Compound: N#CCc1cnc(-c2ccc3ccccc3c2)n1-c1ccnc(NC2CCCN(C(=O)C3CC3)C2)n1 (stereo not drawn) [Example 34, 2-(1-(2-(1-(cyclopropanecarbonyl)piperidine-3-ylamino)pyrimidine-4-yl)-2-(naphthalene-2-yl)-1H-imidazole-5-yl)acetonitrile]
- % Enzyme Activity (relative to DMSO controls) (LCK; Data 1 and Data 2): 95.50%
- remaining activity at 10 µM (LCK; [1]): 95.8%
- % Enzyme Activity (relative to DMSO controls) (IGF1R; Data 1 and Data 2): 92.45%
- remaining activity at 10 µM (IGF1R; [1]): 93.1%
- % Enzyme Activity (relative to DMSO controls) (FYN; Data 1 and Data 2): 94.86%
- remaining activity at 10 µM (FYN; [1]): 95.6%
- % Enzyme Activity (relative to DMSO controls) (Aurora A; Data 1 and Data 2): 101.98%
- remaining activity at 10 µM (Aurora A; [1]): 102%
- % Enzyme Activity (relative to DMSO controls) (CDK2/cyclin E; Data 1 and Data 2): 95.83%
- remaining activity at 10 µM (CDK2/cyclin E; [1]): 97.5%
- % Enzyme Activity (relative to DMSO controls) (EGFR; Data 1 and Data 2): 67.11%
- remaining activity at 10 µM (EGFR; [1]): 68.4%
- % Enzyme Activity (relative to DMSO controls) (ROS/ROS1; Data 1 and Data 2): 95.23%
- remaining activity at 10 µM (ROS/ROS1; [1]): 97.8%
- % Enzyme Activity (relative to DMSO controls) (FGFR3; Data 1 and Data 2): 91.29%
- remaining activity at 10 µM (FGFR3; [1]): 91.4%
- % Enzyme Activity (relative to DMSO controls) (CDK1/cyclin B; Data 1 and Data 2): 90.33%
- remaining activity at 10 µM (CDK1/cyclin B; [1]): 90.7%
- % Enzyme Activity (relative to DMSO controls) (JNK2; Data 1 and Data 2): 1.40%
- remaining activity at 10 µM (JNK2; [1]): 1.41%
- % Enzyme Activity (relative to DMSO controls) (LRRK2; Data 1 and Data 2): 95.95%
- remaining activity at 10 µM (LRRK2; [1]): 96.3%
- % Enzyme Activity (relative to DMSO controls) (SYK; Data 1 and Data 2): 97.43%
- remaining activity at 10 µM (SYK; [1]): 98.1%
- % Enzyme Activity (relative to DMSO controls) (JAK3; Data 1 and Data 2): 99.82%
- remaining activity at 10 µM (JAK3; [1]): 101%
- % Enzyme Activity (relative to DMSO controls) (ALK; Data 1 and Data 2): 97.85%
- remaining activity at 10 µM (ALK; [1]): 98%
- % Enzyme Activity (relative to DMSO controls) (c-Src; Data 1 and Data 2): 92.54%
- remaining activity at 10 µM (c-Src; [1]): 94%
- % Enzyme Activity (relative to DMSO controls) (c-Kit; Data 1 and Data 2): 92.65%
- remaining activity at 10 µM (c-Kit; [1]): 93.4%
- % Enzyme Activity (relative to DMSO controls) (PLK1; Data 1 and Data 2): 97.02%
- remaining activity at 10 µM (PLK1; [1]): 98.8%
- % Enzyme Activity (relative to DMSO controls) (FLT3; Data 1 and Data 2): 96.52%
- remaining activity at 10 µM (FLT3; [1]): 98.7%
- % Enzyme Activity (relative to DMSO controls) (MEK1; Data 1 and Data 2): 104.84%
- remaining activity at 10 µM (MEK1; [1]): 105%
- % Enzyme Activity (relative to DMSO controls) (FMS; Data 1 and Data 2): 93.11%
- remaining activity at 10 µM (FMS; [1]): 93.7%
- % Enzyme Activity (relative to DMSO controls) (ABL1; Data 1 and Data 2): 94.12%
- remaining activity at 10 µM (ABL1; [1]): 95.3%
- % Enzyme Activity (relative to DMSO controls) (PKA; Data 1 and Data 2): 96.45%
- remaining activity at 10 µM (PKA; [1]): 97.3%
- % Enzyme Activity (relative to DMSO controls) (LYN; Data 1 and Data 2): 85.66%
- remaining activity at 10 µM (LYN; [1]): 86.6%
- % Enzyme Activity (relative to DMSO controls) (ERK2/MAPK1; Data 1 and Data 2): 97.70%
- remaining activity at 10 µM (ERK2/MAPK1; [1]): 98%
- % Enzyme Activity (relative to DMSO controls) (GSK3b; Data 1 and Data 2): 29.80%
- remaining activity at 10 µM (GSK3b; [1]): 29.9%
- % Enzyme Activity (relative to DMSO controls) (FAK/PTK2; Data 1 and Data 2): 99.94%
- remaining activity at 10 µM (FAK/PTK2; [1]): 101%
- % Enzyme Activity (relative to DMSO controls) (MLK1/MAP3K9; Data 1 and Data 2): 93.90%
- remaining activity at 10 µM (MLK1/MAP3K9; [1]): 95.7%
- % Enzyme Activity (relative to DMSO controls) (KDR/VEGFR2; Data 1 and Data 2): 73.81%
- remaining activity at 10 µM (KDR/VEGFR2; [1]): 74.1%
- % Enzyme Activity (relative to DMSO controls) (c-MET; Data 1 and Data 2): 90.72%
- remaining activity at 10 µM (c-MET; [1]): 105%
- % Enzyme Activity (relative to DMSO controls) (JNK3; Data 1 and Data 2): 4.81%
- remaining activity at 10 µM (JNK3; [1]): 5.04%
- % Enzyme Activity (relative to DMSO controls) (AKT1; Data 1 and Data 2): 99.04%
- remaining activity at 10 µM (AKT1; [1]): 103%
- % Enzyme Activity (relative to DMSO controls) (ERK1; Data 1 and Data 2): 97.98%
- remaining activity at 10 µM (ERK1; [1]): 98.5%
- % Enzyme Activity (relative to DMSO controls) (mTOR/FRAP1; Data 1 and Data 2): 101.65%
- remaining activity at 10 µM (mTOR/FRAP1; [1]): 105%
